Test system: squalene synthetase
Assay: Squalene synthetase assay (rat liver microsomes, [4-14C]farnesyl pyrophosphate)
Assay type: biochemical
Conditions: C18 HPLC fractions of Curvularia lunata (MF5573 or MF5572) fermentation extract, shown to contain Compound (I)
Experimental: Male, Charles River CD rats (120 to 150 g) were fed a diet containing 0.1% lovastatin for 4 days. The livers from these rats were homogenized in 5 volumes (mL/g) of ice cold 50 mm HEPES (4-(2-hydroxyethyl)-1-piperazine-ethanesulfonic acid), 5 mm EDTA(ethylenediaminetetraacetic acid) pH 7.5 with a Potter-Elvehjem type tissue grinder. The homogenate was centrifuged twice at 20,000×g for 15 min. at 4° C., discarding the pellet each time. The supernatant was then centrifuged at 100,000×g for 1 hr. at 4° C. The resulting microsomal pellet was resuspended in a volume of the above homogenizing buffer equal to one-fifth the volume of the original homogenate. This microsomal preparation has a protein concentration of about 7 mg/ml. The microsomal suspensions were stored in aliquots at -70° C. Squalene synthetase activity in these aliquots is stable for at least several months.
SQUALENE SYNTHETASE ASSAY
Reactions were performed in 16×125 mm screw cap test tubes. A batch assay mix was prepared from the following solution:
This assay mix was degassed under a vacuum and flushed with N2. […] Ten mL of scintillation fluid was added to the heptane solution and radio-activity was determined by liquid scintillation counting.
Percent inhibition is calculated by the formula: [formula]

activity in the squalene synthetase assay: active
Compound: C=C(CCC12OC(C(=O)O)C(O)(C(=O)O)C(C(=O)O)(O1)C(OC(=O)/C=C/C(C)CC(C)CC)C2O)C(OC(C)=O)C(C)Cc1ccccc1 (stereo not shown) [Compound (I)]
